Where two headings read alike, the source gives them in different places.

In test [1] the target is T1, hNR2B (Homo sapiens, UniProt Q13224).
T1 construct: expressed in transfected cells; host or cells: Xenopus laevis oocytes, cRNA-injected
Briefly: Electrophysiology NMDA receptor experiments: two electrode voltage-clamp in Xenopus laevis oocytes, hNR2B IC50. It is filed as cell-based. The settings on record: hNR2B activity class, 50 μM glutamate, 30 μM glycine. On the technique in general: In two-electrode clamp one electrode senses voltage and the other passes current.

The target in test [2] is T2, hNR2B (Homo sapiens, UniProt Q05586+Q13224).
T2 construct: expressed in transfected cells; host or cells: Xenopus laevis oocytes, cRNA-injected
The description is as above. The settings on record: 50 μM glutamate, 30 μM glycine. It is filed as cell-based.

Setting [3] is: hNR2B activity class, read-out: Activity.
Setting [4] is: voltage clamp -40 mV, read-out: hNR2B IC50.

T2 sequence (Q13224 27-1484, other chains not shown): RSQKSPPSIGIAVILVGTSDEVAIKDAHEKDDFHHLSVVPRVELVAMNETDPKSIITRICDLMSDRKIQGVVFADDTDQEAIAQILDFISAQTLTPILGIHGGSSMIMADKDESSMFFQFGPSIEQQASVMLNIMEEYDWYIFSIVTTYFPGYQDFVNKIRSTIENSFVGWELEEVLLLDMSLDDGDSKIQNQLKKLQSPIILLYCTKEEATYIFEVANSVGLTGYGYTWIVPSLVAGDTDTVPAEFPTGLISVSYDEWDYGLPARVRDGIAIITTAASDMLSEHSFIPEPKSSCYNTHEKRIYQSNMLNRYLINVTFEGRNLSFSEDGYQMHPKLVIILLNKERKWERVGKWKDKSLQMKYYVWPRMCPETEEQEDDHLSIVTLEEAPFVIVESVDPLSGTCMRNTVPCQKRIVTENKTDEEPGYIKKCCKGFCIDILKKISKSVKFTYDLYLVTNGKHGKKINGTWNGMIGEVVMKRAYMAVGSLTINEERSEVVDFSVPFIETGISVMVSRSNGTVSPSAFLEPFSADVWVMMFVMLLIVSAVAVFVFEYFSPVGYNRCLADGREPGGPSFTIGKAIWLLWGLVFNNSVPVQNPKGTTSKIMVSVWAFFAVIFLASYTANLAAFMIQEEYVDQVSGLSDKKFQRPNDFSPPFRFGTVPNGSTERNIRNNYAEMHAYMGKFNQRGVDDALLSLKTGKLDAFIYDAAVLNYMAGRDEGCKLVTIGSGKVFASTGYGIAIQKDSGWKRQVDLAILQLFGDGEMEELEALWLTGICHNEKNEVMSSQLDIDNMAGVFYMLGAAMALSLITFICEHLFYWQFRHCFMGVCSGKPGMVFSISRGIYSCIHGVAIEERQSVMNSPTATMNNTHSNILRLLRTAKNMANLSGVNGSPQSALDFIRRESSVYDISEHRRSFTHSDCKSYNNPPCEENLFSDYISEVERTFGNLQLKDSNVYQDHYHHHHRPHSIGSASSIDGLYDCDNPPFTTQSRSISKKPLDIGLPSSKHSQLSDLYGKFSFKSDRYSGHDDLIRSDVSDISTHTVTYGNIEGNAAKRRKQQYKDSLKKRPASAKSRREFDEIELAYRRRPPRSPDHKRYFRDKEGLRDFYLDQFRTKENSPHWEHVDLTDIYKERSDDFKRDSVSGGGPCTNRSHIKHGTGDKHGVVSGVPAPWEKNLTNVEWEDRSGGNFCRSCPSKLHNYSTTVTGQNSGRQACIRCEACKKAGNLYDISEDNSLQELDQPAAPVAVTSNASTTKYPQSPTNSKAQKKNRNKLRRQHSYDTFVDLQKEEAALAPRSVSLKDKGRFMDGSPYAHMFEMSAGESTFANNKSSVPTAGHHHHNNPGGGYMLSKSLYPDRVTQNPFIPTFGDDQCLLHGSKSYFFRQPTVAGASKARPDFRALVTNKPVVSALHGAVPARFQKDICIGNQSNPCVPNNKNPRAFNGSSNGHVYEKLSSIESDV
T1 sequence (Q13224 27-1484, other chains not shown): as above

For the compound `CC(Oc1ccc2[nH]c(=O)ccc2c1)c1nnc(Nc2ccc(Cl)c(Cl)c2)o1` (single isomer, unassigned) [Example 110], the IC50 against hNR2B [1] is below 200 nM.

With `O=c1ccc2cc(OCc3cc(Nc4ccc(C(F)(F)F)cc4)no3)ccc2[nH]1` [Example 264], on hNR2B [2] (setting [3]), the IC50 was below 200 nM.

Consider `CCc1ccc(Nc2cc(COc3ccc4[nH]c(=O)ccc4c3)on2)cc1` [Example 265], for which, on hNR2B [2] (setting [3]), the IC50 is below 200 nM.

On to `CCCc1ccc(Nc2cc(COc3ccc4[nH]c(=O)ccc4c3)on2)cc1` [Example 266], for which the IC50 on hNR2B [2] (setting [3]) was above 10000 nM.

As for `O=c1ccc2cc(OCc3cc(Nc4ccc(OC(F)F)c(F)c4)no3)ccc2[nH]1` [Example 267], the IC50 at hNR2B [2] (setting [3]) was below 200 nM.

`Cc1cc(Nc2cc(COc3ccc4[nH]c(=O)ccc4c3)on2)ccc1OC(F)F` [Example 268]: the IC50 on hNR2B [2] (setting [3]) was below 200 nM.

With `O=c1ccc2cc(OCc3cc(Nc4ccc(C(F)(F)F)c(Cl)c4)no3)ccc2[nH]1` [Example 269], at hNR2B [2] (setting [3]), the IC50 is below 200 nM.

In the case of `Cc1cc(Nc2cc(COc3ccc4[nH]c(=O)ccc4c3)on2)ccc1F` [Example 270], at hNR2B [2] (setting [3]), the IC50 lay in the range of 1000 to 10000 nM.

`Cc1ccc(Nc2cc(COc3ccc4[nH]ncc4c3)on2)cc1F` [Example 271]: the IC50 on hNR2B [2] (setting [3]) was below 200 nM.

With `Cc1cc(Nc2cc(COc3ccc4[nH]ncc4c3)on2)ccc1OC(F)F` [Example 272], the IC50 at hNR2B [2] (setting [3]) was below 200 nM.

In the case of `CCc1ccc(Nc2cc(COc3ccc4[nH]ncc4c3)on2)cc1` [Example 273], at hNR2B [2] (setting [3]), the IC50 lay in the range of 1000 to 10000 nM.

Take `Fc1cc(Nc2cc(COc3ccc4[nH]ncc4c3)on2)ccc1OC(F)F` [Example 274]: at hNR2B [2] (setting [3]), the IC50 was below 200 nM.

As to `FC(F)Oc1ccc(Nc2cc(COc3ccc4[nH]ncc4c3)on2)cc1` [Example 275], the IC50 at hNR2B [2] (setting [3]) is below 200 nM.

For the compound `Cn1c(COc2ccc3[nH]c(=O)ccc3c2)nnc1Nc1ccc(Cl)c(Cl)c1` [Example 276, 6-((5-(3,4-dichlorophenylamino)-4-methyl-4H-1,2,4-triazol-3-yl)methoxy)quinolin-2(1H)-one], the IC50 at hNR2B [2] (setting [4]) turned out to be 24 nM.

On to `Cn1c(CCc2ccc3[nH]ncc3c2)nnc1Nc1ccc(OC(F)F)cc1` [Example 277, 5-(2-(1H-indazol-5-yl)ethyl)-N-(4-(difluoromethoxy)phenyl)-4-methyl-4H-1,2,4-triazol-3-amine], for which, on hNR2B [2] (setting [4]), the IC50 was 104 nM.

On to `Cn1c(COc2ccc3[nH]c(=O)ccc3c2)nnc1Nc1ccc(OC(F)F)cc1` [Example 278], for which, on hNR2B [2] (setting [4]), the IC50 is 90 nM.

On to `Cn1c(COc2ccc3[nH]c(=O)ccc3c2)nnc1Nc1ccc(OC(F)(F)F)cc1` [Example 279], for which the IC50 on hNR2B [2] (setting [3]) was below 200 nM.

In the case of `Cn1c(CCNc2ncnc3[nH]ncc23)nnc1Nc1ccc(OC(F)F)cc1` [Example 280], the IC50 on hNR2B [2] (setting [3]) was below 200 nM.

Consider `CCn1c(COc2ccc3[nH]c(=O)ccc3c2)nnc1Nc1ccc(OC(F)F)cc1` [Example 281], for which the IC50 on hNR2B [2] (setting [3]) was below 200 nM.

`O=c1ccc2cc(OCc3nnc(Nc4ccc(Cl)cc4)[nH]3)ccc2[nH]1` [Example 282]: the IC50 at hNR2B [2] (setting [4]) is 290 nM.

Consider `O=C1CCc2cc(OCc3nnc(Nc4ccc(Cl)cc4)[nH]3)ccc2N1` [Example 283], for which the IC50 at hNR2B [2] (setting [3]) is 201 to 1000 nM.

Consider `O=C1CCc2cc(OCc3nnc(Cc4ccc(Cl)c(Cl)c4)[nH]3)ccc2N1` [Example 284, 6-((5-(3,4-dichlorobenzyl)-4H-1,2,4-triazol-3-yl)methoxy)-3,4-dihydroquinolin-2(1H)-one], for which, at hNR2B [2] (setting [4]), the IC50 was found to be 20000 nM.

Regarding `O=c1ccc2cc(OCc3nnc(Cc4ccc(Cl)c(Cl)c4)[nH]3)ccc2[nH]1` [Example 285, 6-((5-(3,4-dichlorobenzyl)-4H-1,2,4-triazol-3-yl)methoxy)quinolin-2(1H)-one], on hNR2B [2] (setting [4]), the IC50 was found to be 5000 nM.

On to `O=C1CCc2cc(OCc3nnc(-c4ccc(Cl)cc4)[nH]3)ccc2N1` [Example 286, 6-((5-(4-chlorophenyl)-4H-1,2,4-triazol-3-yl)methoxy)-3,4-dihydroquinolin-2(1H)-one], for which the IC50 at hNR2B [2] (setting [4]) is 3000 nM.

With `O=C1CCc2cc(OCc3nc(Cc4ccc(Cl)cc4)no3)ccc2N1` [Example 287, 6-((3-(4-chlorobenzyl)-1,2,4-oxadiazol-5-yl)methoxy)-3,4-dihydroquinolin-2(1H)-one], the IC50 at hNR2B [2] (setting [4]) is 3800 nM.

As to `O=C1CCc2cc(OCCCc3noc(-c4ccc(Cl)cc4)n3)ccc2N1` [Example 288, 6-(3-(5-(4-chlorophenyl)-1,2,4-oxadiazol-3-yl)propoxy)-3,4-dihydroquinolin-2(1H)-one], at hNR2B [2] (setting [4]), the IC50 was above 10000 nM.

As to `O=c1ccc2cc(OCc3nnc(Cc4ccc(Cl)c(Cl)c4)o3)ccc2[nH]1` [Example 289, 6-((5-(3,4-dichlorobenzyl)-1,3,4-oxadiazol-2-yl)methoxy)quinolin-2(1H)-one], on hNR2B [2] (setting [4]), the IC50 was 2400 nM.

Regarding `O=C1CCc2cc(OCc3nnc(C(O)c4ccc(Cl)c(Cl)c4)o3)ccc2N1` (centres unmarked) [Example 290, 6-((5-((3,4-dichlorophenyl)(hydroxy)methyl)-1,3,4-oxadiazol-2-yl)methoxy)-3,4-dihydroquinolin-2(1H)-one], the IC50 at hNR2B [2] (setting [4]) was 4800 nM.

On to `O=C1CCc2cc(OCCNc3nnc(-c4ccc(C(F)(F)F)cc4)o3)ccc2N1` [Example 291, 6-(2-(5-(4-(trifluoromethyl)phenyl)-1,3,4-oxadiazol-2-ylamino)ethoxy)-3,4-dihydroquinolin-2(1H)-one], for which the IC50 at hNR2B [2] (setting [4]) is 1200 nM.

Source of the values: patent publication US8722670B2, “Selective NR2B antagonists” (Bristol-Myers Squibb Company, priority 2011, dated 2014).
